Laboratory results as given in PMC6370995, “Phase I study of PF‐04895162, a Kv7 channel opener, reveals unexpected hepatotoxicity in healthy subjects, but not rats or monkeys: clinical evidence of disrupted bile acid homeostasis” (Pharmacology Research & Perspectives, 2019).

Tested on: healthy subjects
Experiment: Phase 1 clinical study in healthy subjects: safety (adverse events, laboratory tests)
Assay type: in vivo, human
Procedure: A randomized, double‐blind, third‐party open (i.e., subject and Investigator blind, and Sponsor open), placebo‐controlled study was conducted in healthy subjects to investigate the safety, tolerability, and pharmacokinetics of single and multiple oral doses of PF‐04895162 and to characterize the effect of food on the pharmacokinetics of a single oral dose of PF‐04895162. The study was conducted in accordance with the International Conference on Harmonization guideline for Good Clinical Practice and the principles of the Declaration of Helsinki and was approved by the local independent ethics committee. All subjects gave written informed consent prior to participation in the study. The study was planned as a parallel group, dose escalation study in four cohorts of 10 subjects each, however, the study was terminated prematurely and only Cohort 1 was conducted. After an initial screening visit to confirm eligibility, subjects in Cohort 1 (Figure 1) received single oral doses of 300 mg PF‐04895162 in Period 1 (under fasting conditions) and Period 2 (under fed conditions), and then 300 mg BID PF‐04895162 or placebo for 14 days (under fasting conditions) in Period 3 (the final dose was administered on the morning of Day 14). In Period 2, subjects were given a high‐fat breakfast 25 minutes prior to dosing which had to be consumed within 20 minutes. In all periods, subjects were fasted for at least 8 hours prior to morning dosing (except for breakfast in Period 2), and received lunch and dinner approximately 4 and 9‐10 hours after the morning dose, respectively. In Period 3, subjects were randomized so that eight subjects received PF‐04895162 and two subjects received placebo. The single doses in Periods 1 and 2, and the first dose in Period 3 were each separated by 3 days. A follow‐up visit was conducted 7‐14 days after the final dose. The ClinicalTrials.gov identifier was NCT01691274.
Subjects were healthy males and/or females of nonchildbearing potential, aged 18 to 55 years inclusive with body mass index of 17.5 to 30.5 kg/m^2 and total body weight of >50 kg. Healthy was defined as no clinically relevant abnormalities identified by a detailed medical history, full physical examination, including blood pressure and pulse rate measurement, 12 lead electrocardiograms (ECGs) or clinical laboratory tests. Subjects with evidence or history of clinically significant disease (including drug allergies, but excluding untreated, asymptomatic, seasonal allergies at the time of dosing) and pregnant or nursing females were excluded from this study. Subjects with a history of seizures or conditions with a risk of seizures were also excluded. Other exclusion criteria were generally standard for healthy subject studies and included conditions affecting drug absorption, evidence of drug and/or alcohol abuse, and restrictions on the use of prescription, nonprescription, and over‐the‐counter medications and herbal remedies.
Safety was assessed throughout the study by monitoring adverse events, vital signs (blood pressure, pulse rate, and body temperature), 12‐lead ECGs, and physical examinations. Blood samples for safety laboratory assessments were collected prior to and 24 hours after the first single dose of PF‐04895162 (Day 1 and 2 of Period 1), and in Period 3 on Days 7, 14, and 21 (additional samples were also collected in response to emerging safety data). The Columbia suicide severity rating scale (C‐SSRS) was also conducted at screening or baseline and at the follow‐up visit. Blood samples for pharmacokinetic profiles of PF‐04895162 were collected from predose to 72 hours after each single dose (Periods 1 and 2), and up to 12 and 48 hours after morning dosing on Days 7 and 14, respectively, in Period 3. Additional trough samples were also collected on Days 5, 6, 12, and 13 of Period 3.

[1] = 300 mg single dose, fasted, N = 10
[2] = 300 mg single dose, fed, N = 10
[3] = Grade 1, >1.25 - 2.5 × ULN, 300 mg BID
[4] = Grade 2, >2.5 - 5 × ULN, 300 mg BID
[5] = Grade 3, >5 - 10 × ULN, 300 mg BID

O=C(Cc1ccc(F)cc1)Nn1c(C2CC2)nc2cc(F)ccc2c1=O [PF‐04895162, N‐(2‐cyclopropyl‐7‐fluoro‐4‐oxoquinazolin‐3(4H)‐yl)‐2‐(4‐fluorophenyl)ethanamide]
ALT, Subject 8, Day 7 (300 mg BID): 1.5 x the ULN
Height of transaminase elevations (300 mg BID, 14-day multiple dose): ≤ 5 x the ULN
ALT elevation, Subject 8 (300 mg BID, Day 14, Grade 3): 5.6 x ULN
AST increase, Subject 8 (300 mg BID, Grade 2): 2.7 x ULN
Number of Subjects discontinued due to AEs, all causalities (300 mg BID, N = 8): 1 (1)
Number of Subjects discontinued due to AEs, treatment-related (300 mg BID, N = 8): 1 (1)
Number of Subjects with AEs, all causalities (300 mg BID, N = 8): 8
Number of Subjects with AEs, treatment-related (300 mg BID, N = 8): 6
Number of Subjects with Amylase increased, all causalities (300 mg BID, N = 8): 2 (2)
Number of Subjects with Amylase increased, treatment-related (300 mg BID, N = 8): 2 (2)
Number of Subjects with Decreased appetite, all causalities (300 mg BID, N = 8): 2
Number of Subjects with Decreased appetite, treatment-related (300 mg BID, N = 8): 0
Number of Subjects with Flatulence, all causalities (300 mg BID, N = 8): 2
Number of Subjects with Flatulence, treatment-related (300 mg BID, N = 8): 1
Number of Subjects with Transaminases increased, all causalities (300 mg BID, N = 8): 6 (6)
Number of Subjects with Transaminases increased, treatment-related (300 mg BID, N = 8): 6 (6)
Number of Subjects with serious AEs (300 mg BID, N = 8): 0
Number of Subjects with severe AEs (300 mg BID, N = 8): 0
ALT response, Subject 6 (300 mg BID, by Day 14): did not demonstrate any ALT elevations
GGT elevation, Subject 8 (300 mg BID, starting on Day 14): 1.4 x ULN
Subjects with elevations in ALT on Day 14 (300 mg BID, subjects who finished Period 3): six of the remaining seven subjects
Number of Subjects discontinued due to AEs, all causalities [1]: 0
Number of Subjects with AEs, all causalities [1]: 1 (1)
Number of Subjects with AEs, treatment-related [1]: 1 (1)
Number of Subjects with Amylase increased, all causalities [1]: 0
Number of Subjects with Decreased appetite, all causalities [1]: 0
Number of Subjects with Flatulence, all causalities [1]: 0
Number of Subjects with Transaminases increased, all causalities [1]: 0
Number of Subjects with serious AEs [1]: 0
Number of Subjects with severe AEs [1]: 0
Number of Subjects discontinued due to AEs, all causalities [2]: 0
Number of Subjects with AEs, all causalities [2]: 2
Number of Subjects with AEs, treatment-related [2]: 0
Number of Subjects with Amylase increased, all causalities [2]: 0
Number of Subjects with Decreased appetite, all causalities [2]: 0
Number of Subjects with Flatulence, all causalities [2]: 0
Number of Subjects with Transaminases increased, all causalities [2]: 0
Number of Subjects with serious AEs [2]: 0
Number of Subjects with severe AEs [2]: 0
Subjects with transaminase elevations (≥grade 1) (300 mg twice daily for 2 weeks, healthy subjects): six of eight
Lipase, Subject 7 (Day 3 of Period 3, 300 mg BID, ULN = 60 IU/L): 434 IU/L
Amylase, Subject 7 (Day 3 of Period 3, 300 mg BID, ULN = 136 IU/L): 179 IU/L
TBIL abnormalities, number of subjects, Grade 1 (Grade 1, >1 - 1.5 × ULN, 300 mg BID): 2
ALT abnormalities, number of subjects, Grade 1 [3]: 3
AST abnormalities, number of subjects, Grade 1 [3]: 0
TBIL abnormalities, number of subjects, Grade 2 (Grade 2, >1.5 - 2.5 × ULN, 300 mg BID): 0
ALT abnormalities, number of subjects, Grade 2 [4]: 2
AST abnormalities, number of subjects, Grade 2 [4]: 1
TBIL abnormalities, number of subjects, Grade 3 (Grade 3, >2.5 - 5 × ULN, 300 mg BID): 0
ALT abnormalities, number of subjects, Grade 3 [5]: 1
AST abnormalities, number of subjects, Grade 3 [5]: 0
TBIL abnormalities, number of subjects, Grade 4 (Grade 4, >5 × ULN, 300 mg BID): 0
ALT abnormalities, number of subjects, Grade 4 (Grade 4, >10 × ULN, 300 mg BID): 0
AST abnormalities, number of subjects, Grade 4 (Grade 4, >10 × ULN, 300 mg BID): 0
